Results taken from patent US12428378B2, “Methods and materials for increasing level of phosphorylated AMPK protein” (University of Pittsburgh—Of the Commonwealth System of …, priority 2019, dated 2025).

tested on: pAMPK; test: pAMPK immunostaining chemiluminescence assay in Beas2B cells; format: cell-based; conditions: Homo sapiens, BEAS-2B, 18 h, DMEM no glucose media, compounds 3-34, 36-44, 47-60 tested as HCl salts, read-out: efficacy (minimal compound concentration needed to increase pAMPK by 30%)
Experimental: Beas2B cells were plated in 384 white nunc plate (4000 cells per well) for overnight. Compounds were serially diluted in DMEM no glucose media using the liquid handler. Cells were washed once using Biotek EL406 before compound addition for additional 18 hours. Cells were washed and fixed with PFA before immunostained with pAMPK primary antibody and anti-Rabbit HRP secondary antibody. Finally, 25 μl of ECL reagent will be added to cells, and chemical luminescence signal will be counted using plate reader. Compounds efficacies (μM) were determined by the minimal compound concentration needed to increase pAMPK by 30%. Activity: “+” equals >10 μM; “++” equals between ≤10 μM and >1 μM; and “+++” equals ≤1 μM.

Compound | EC (30% increase) [µM]
Cc1ccccc1CN(Cc1ccccc1)CC(O)COc1ccc(C(F)(F)F)cc1 (centres unmarked) [compound 5] | 1 to 10
Cc1ccccc1CN(CC(O)COc1ccc(C(F)(F)F)cc1)[C@@H](c1cccnc1)C(F)(F)F (some centres unmarked) [compound 198] | > 10
OC(COc1ccc(C(F)(F)F)cc1)CN(Cc1ccncc1)Cc1ccncc1 (centres unmarked) [compound 41] | 1 to 10
Cc1ccccc1CN(Cc1cccnc1)CC(C)(C)COc1cnc(C(F)(F)F)nc1 [compound 190] | 1 to 10
CC(CNCC(O)COc1ccc(C(F)(F)F)cc1)(c1ccccc1)c1ccccc1 (centres unmarked) [compound 12] | 1 to 10
Cc1ccccc1CN(CC(O)COc1ccc(C(F)(F)F)cc1)C(C)c1cccnc1 (centres unmarked) [compound 118] | > 10
FC(F)(F)c1ccc(OCCCN2Cc3ccccc3C[C@H]2c2cccnc2)cc1 [compound 151] | ≤ 1
Cc1ccccc1CN(CCCOc1ccc(C(F)(F)F)cc1)Cc1cncn1C [compound 119] | ≤ 1
Cc1ccccc1CN(CC(O)COc1ccc(C(F)(F)F)cc1)C(=O)c1c[nH]nc1C (centres unmarked) [compound 89] | 1 to 10
CC1(c2cccnc2)Cc2ccccc2CN1CC(O)COc1ccc(C(F)(F)F)cc1 (centres unmarked) [compound 178] | ≤ 1
Cc1ccccc1CN(Cc1cc[nH]n1)CC(O)COc1ccc(C(F)(F)F)cc1 (centres unmarked) [compound 37] | 1 to 10
[2H]C1(c2cccnc2)c2ccccc2CCN1CC(O)COc1ccc(C(F)(F)F)cc1 (centres unmarked) [compound 96] | ≤ 1
Cn1ccnc1C(=O)N(Cc1ccccc1Cl)CC(O)COc1ccc(C(F)(F)F)cc1 (centres unmarked) [compound 91] | ≤ 1
Cc1ccccc1CN(CCc1ccccn1)CC(O)COc1ccc(C(F)(F)F)cc1 (centres unmarked) [compound 52] | 1 to 10
O[C@@H](COc1ccc(C(F)(F)F)cc1)CN1Cc2ccccc2C[C@H]1c1cccnc1 [compound 134] | ≤ 1
Cc1ccccc1CN(Cc1cncnc1)CC(O)COc1ccc(C(F)(F)F)cc1 (centres unmarked) [compound 23] | ≤ 1

Compound | EC (30% increase) [µM]
CC(c1cccnc1)N(Cc1ccccc1Cl)CC(O)COc1ccc(C(F)(F)F)cc1 (centres unmarked) [compound 138] | > 10
OC(COc1ccccn1)CN(Cc1ccccc1)Cc1ccccc1 (centres unmarked) [compound 10] | 1 to 10
Cc1ccccc1CN(CC(O)COc1ccc(C(F)(F)F)cc1)C(=O)c1nccs1 (centres unmarked) [compound 84] | ≤ 1
OC(COc1ccc(C(F)(F)F)cc1)CC1=Nc2ccccc2CC1c1cccnc1 (centres unmarked) [compound 57] | 1 to 10
Cc1ccccc1CN(Cc1cccc(C#N)c1)CC(O)COc1ccc(C(F)(F)F)cc1 (centres unmarked) [compound 50] | > 10
Cn1cncc1C(=O)N(CCCOc1cnc(C(F)(F)F)nc1)Cc1ccccc1Cl [compound 168] | > 10
OC(COc1ccc(C(F)(F)F)cc1)CN(Cc1cccnc1)Cc1cccnc1 (centres unmarked) [compound 7] | ≤ 1
OC(COc1ccc(C(F)(F)F)cc1)CN(Cc1ccccc1)Cc1cncnc1 (centres unmarked) [compound 13] | ≤ 1
OC(COc1ccc(C(F)(F)F)cc1)CN(Cc1ccccn1)Cc1ccccn1 (centres unmarked) [compound 42] | ≤ 1
Cn1cncc1C(=O)N(Cc1cccnc1)CC(C)(C)COc1ccc(C(F)(F)F)cc1 [compound 193] | ≤ 1
[2H]C1(c2cccnc2)c2ccccc2CCN1CCCOc1ccc(C(F)(F)F)cc1 (centres unmarked) [compound 101] | ≤ 1
Cn1cncc1C(=O)N(CCCOc1ccc(C(F)(F)F)cc1)Cc1ccccc1Cl [compound 125] | ≤ 1
Cc1ccccc1CN(CC(=O)COc1ccc(C(F)(F)F)cc1)C(=O)c1cccnc1 [compound 123] | 1 to 10
Cc1ccccc1CN(CC(O)COc1ccc(C(F)(F)F)cc1)C(=O)c1cn[nH]c1 (centres unmarked) [compound 76] | 1 to 10
Cc1ccccc1CN(Cc1ccc(=O)[nH]c1)CC(O)COc1ccc(C(F)(F)F)cc1 (centres unmarked) [compound 59] | 1 to 10
Cn1cncc1C(=O)N(Cc1ccccc1Cl)CC(O)COc1cnc(C(F)(F)F)nc1 (centres unmarked) [compound 148] | > 10
